Test results published in patent US10980777B2, “Indole derivatives as histone demethylase inhibitors” (Istituto Europeo di Oncologia S.r.l., priority 2017, dated 2021).
pIC50: −log10 of the molar value. Structures can show the parent of a compound that is named as a salt. Where two headings read alike, the source gives them in different places.

Tests used:
[1] = system: human leukemia NB4 cells; experiment: Cell growth, CellTiter-Fluor cell viability assay, NB4; format: cell-based; conditions: NB-4, 48 h incubation, read-out: IC50 against human leukemia NB4 cells
Description: (§1) CellTiter-Flor® (Promega) is as a nonlytic, single-reagent-addition fluorescence assay that measures the relative number of living cells in a culture population after experimental manipulation. The CellTiter-Fluor™ Cell Viability Assay measures the conserved and constitutive protease activity within live cells and therefore acts as a marker for cell viability.
(§2) Human leukemia MV4-11 cells, (obtained from the Deutsche Sammlung von Mikroorganismen und Zellkulturen, ACC 102) or NB4 cells, (obtained from the Deutsche Sammlung von Mikroorganismen und Zellkulturen) in exponential growth, were incubated for 48 h with different concentrations of the inhibitors. After 48 h a volume of CellTiter-Fluor® Reagent equal to one fifth of volume of cell culture medium was added. The content was mixed and incubates for at least 90 min at 37° C. degree to obtain a stable signal. The fluorescence was recorded using an excitation wavelength of 360 nm and an emission at 535 nm. The IC50 was calculated using GraphPad Software.

[2] = system: Human leukemia MV4-11 cells; experiment: Cell growth, CellTiter-Fluor cell viability assay, MV4-11; format: cell-based; conditions: 48 h incubation, read-out: IC50 against human leukemia MV4-11 cells
Description: as §1, §2

[3] = biological target: T1, human recombinant KDM1A/CoREST protein (Homo sapiens, UniProt O60341); experiment: Assay of enzyme inhibition of KDM1A (LSD1), TR-FRET; format: biochemical
T1 construct: made in house; host or cells: E. coli
Experimental: 2.1 Assay of Enzyme Inhibition of KDM1A (LSD1)
The KDM1A inhibiting activity was determined using a TR-FRET assay (time resolved fluorescence resonance energy transfer, Lance® Ultra Demethylase technology (Perkin Elmer, Waltham, Mass., USA)), which comprises a Europium chelate donor dye (TRF0404, Perkin Elmer, Waltham, Mass., USA) together with ULight™ (TR0102, Perkin Elmer, Waltham, Mass., USA), a small molecular weight acceptor dye with a red-shifted fluorescent emission, and a biotinylated 21 amino acids histone H3-derived monomethylated peptide (H3K4me) [Lys(Me1)4]-Histone H3 (1-21)-GGK(biotin), (64355, Anaspec, Fremont, Calif., USA) as substrate. The intensity of the light emission is proportional to the level of biotinylated reaction product. The complex of human recombinant KDM1A/CoREST protein was produced in E. coli as separate proteins and co-purified as previously described.(Forneris, F. et al. Trends Biochem, Sci, 2008, 33, 181-189) (Forneris, F. et al. J. Biol. Chem. 2007, 282, 20070-20074).
Demethylase Assay conditions: 0.25 nM KDM1A/CoREST protein and compound in 100% DMSO were added in a final volume of 48 μL assay buffer (Tris HCl 50 mM pH 8.8, NaCl 50 mM, DTT 1 mM, Tween-20 0.01% (by volume)) to each well of a 96 well half area flat bottom white plate (3693 Costar, Sigma-Aldrich, St. Louis, M, USA).
Demethylase reaction was started by the addition of 50 nM histone H3K4 monomethylated. After 20 min at RT, 300 μM tranylcypromine (P8511-1G, Sigma-Aldrich, St. Louis, Mo. 63103) was added to stop the reaction.
Detection step conditions: 10 μL of the assay mixture was transferred from the original plate into a 384 well white plate (6007290 OptiPlate™, Perkin Elmer, Waltham, Mass., USA) and 10 μL of the detection Mix containing 2 nM Eu-antibody and 10 nM U-Light-Streptavidin in 1× Lance Detection Buffer (TRF0404, TR0102, CR97100, Perkin Elmer, Waltham, Mass., USA). The resulting mixture was incubated in the dark for 1 h at RT. Then, TR-FRET signal was read by a fluorimeter (Infinite® F200, Tecan, Männedorf, Switzerland) (Excitation 320 nm, Emission 665 nm and 620 nm, delay time 50 μs, window time 100 μs).
IC50 determination: The inhibitor concentrations ranged from 0.025 to 500 μM (serial 1:3 dilutions). The IC50 was calculated using GraphPad Software.

[4] = 0.25 nM KDM1A/CoREST, 50 nM H3K4 monomethylated peptide, 20 min at RT, read-out: IC50, KDM1A (LSD1) enzyme inhibition

Cn1c(C(=O)c2cn(CCOc3ccc(OC[C@@H]4CCNC4)cc3)c3ccccc23)cc2sccc21 (stereo in doubt) [Compound 15, (4-methylthieno[3,2-b]pyrrol-5-yl)-[1-[2-[4-(pyrrolidin-3-ylmethoxy)phenoxy]ethyl]indol-3-yl]methanone hydrochloride]
pIC50 [1]: > 5.00
pIC50 [2]: > 5.00
pIC50 [3, 4]: > 6.30

Cn1c(C(=O)c2cn(CCOc3cccc(O[C@@H]4CCCNCC4)c3)c3ccccc23)cc2sccc21 (stereo in doubt) [Compound 20, [1-[2-[3-(azepan-4-yloxy)phenoxy]ethyl]indol-3-yl]-(4-methylthieno[3,2-b]pyrrol-5-yl)methanone hydrochloride]
pIC50 [1]: > 5.00
pIC50 [3, 4]: > 6.30

Cn1c(C(=O)c2cn(CCOc3ccc(O[C@H]4CCCNCC4)cc3)c3ccccc23)cc2sccc21 (stereo in doubt) [Compound 21, [1-[2-[4-(azepan-4-yloxy)phenoxy]ethyl]indol-3-yl]-(4-methylthieno[3,2-b]pyrrol-5-yl)methanone hydrochloride]
pIC50 [1]: > 5.00
pIC50 [3, 4]: > 6.30

Cn1c(C(=O)c2cn(CCCc3ccc(OC[C@@H]4CCNC4)cc3)c3ccccc23)cc2sccc21 (stereo in doubt) [Compound 22, (4-methylthieno[3,2-b]pyrrol-5-yl)-[1-[3-[4-(pyrrolidin-3-ylmethoxy)phenyl]propyl]indol-3-yl]methanone hydrochloride]
pIC50 [1]: > 5.00
pIC50 [3, 4]: > 6.30

Cn1c(C(=O)c2cn(CCCc3ccc(O[C@H]4CCCNCC4)cc3)c3ccccc23)cc2sccc21 (stereo in doubt) [Compound 25, [1-[3-[4-(azepan-4-yloxy)phenyl]propyl]indol-3-yl]-(4-methylthieno[3,2-b]pyrrol-5-yl)methanone hydrochloride]
pIC50 [3, 4]: > 6.30

CCn1c(C(=O)c2cn(CCCc3ccc(OC[C@@H]4CCNC4)cc3)c3ccccc23)cc2sccc21 (stereo in doubt) [Compound 28, (4-ethylthieno[3,2-b]pyrrol-5-yl)-[1-[3-[4-(pyrrolidin-3-ylmethoxy)phenyl]propyl]indol-3-yl]methanone hydrochloride]
pIC50 [3, 4]: > 6.30

Cn1c(C(=O)c2cn(CCCc3ccc(OC[C@@H]4CCNC4)cc3)c3ccccc23)cc2ccsc21 (stereo in doubt) [Compound 29, (6-methylthieno[2,3-b]pyrrol-5-yl)-[1-[3-[4-(pyrrolidin-3-ylmethoxy)phenyl]propyl]indol-3-yl]methanone]
pIC50 [3, 4]: > 6.30

Cn1c(C(=O)c2c[nH]c3ccccc23)cc2sccc21 [Compound 1, 1H-indol-3-yl-(4-methylthieno[3,2-b]pyrrol-5-yl)methanone]
pIC50 [3, 4]: > 4.30

Cc1ccc2[nH]cc(C(=O)c3cc4sccc4n3C)c2c1 [Compound 2, (5-methyl-1H-indol-3-yl)-(4-methylthieno[3,2-b]pyrrol-5-yl)methanone]
pIC50 [3, 4]: > 4.30

CCn1c(C(=O)c2c[nH]c3ccccc23)cc2sccc21 [Compound 5, (4-ethylthieno[3,2-b]pyrrol-5-yl)-(1H-indol-3-yl)methanone]
pIC50 [3, 4]: > 4.30

Cn1c(C(=O)c2c[nH]c3ccccc23)cc2ccsc21 [Compound 6, 1H-indol-3-yl-(6-methylthieno[2,3-b]pyrrol-5-yl)methanone]
pIC50 [3, 4]: > 4.30

COCCn1cc(C(=O)c2cc3sccc3n2C)c2ccccc21 [Compound 8, [1-(2-Methoxyethyl)indol-3-yl]-(4-methylthieno[3,2-b]pyrrol-5-yl)methanone]
pIC50 [3]: > 4.30

Cn1c(C(=O)c2cn(CCOc3ccccc3OCC3CCNC3)c3ccccc23)cc2sccc21 (stereo not shown) [Compound 11, (4-Methylthieno[3,2-b]pyrrol-5-yl)-[1-[2-[2-(pyrrolidin-3-ylmethoxy)phenoxy]ethyl]indol-3-yl]methanone hydrochloride]
pIC50 [1]: > 5.00
pIC50 [2]: > 5.00
pIC50 [3, 4]: > 5.30

Cn1c(C(=O)c2cn(CCOc3cccc(OCC4CCNC4)c3)c3ccccc23)cc2sccc21 (stereo not shown) [Compound 12, (4-methylthieno[3,2-b]pyrrol-5-yl)-[1-[2-[3-(pyrrolidin-3-ylmethoxy)phenoxy]ethyl]indol-3-yl]methanone]
pIC50 [3, 4]: > 6.30

Cn1c(C(=O)c2cn(CCOc3cccc(OC[C@H]4CCNC4)c3)c3ccccc23)cc2sccc21 [Compound 13, (4-methylthieno[3,2-b]pyrrol-5-yl)-[1-[2-[3-[[(3S)-pyrrolidin-3-yl]methoxy]phenoxy]ethyl]indol-3-yl]methanone hydrochloride]
pIC50 [1]: > 5.00
pIC50 [2]: > 5.00
pIC50 [3, 4]: > 6.30

Cn1c(C(=O)c2cn(CCOc3cccc(OC[C@@H]4CCNC4)c3)c3ccccc23)cc2sccc21 [Compound 14, (4-methylthieno[3,2-b]pyrrol-5-yl)-[1-[2-[3-[[(3R)-pyrrolidin-3-yl]methoxy]phenoxy]ethyl]indol-3-yl]methanone hydrochloride]
pIC50 [1]: > 5.00
pIC50 [2]: > 5.00
pIC50 [3, 4]: > 6.30

Cn1c(C(=O)c2cn(CCOc3cccc(OC4CCNCC4)c3)c3ccccc23)cc2sccc21 [Compound 16, (4-methylthieno[3,2-b]pyrrol-5-yl)-[1-[2-[3-(4-piperidyloxy)phenoxy]ethyl]indol-3-yl]methanone hydrochloride]
pIC50 [1]: > 5.00
pIC50 [2]: > 5.00
pIC50 [3, 4]: > 6.30

Cn1c(C(=O)c2cn(CCOc3ccc(OC4CCNCC4)cc3)c3ccccc23)cc2sccc21 [Compound 17, (4-methylthieno[3,2-b]pyrrol-5-yl)-[1-[2-[4-(4-piperidyloxy)phenoxy]ethyl]indol-3-yl]methanone hydrochloride]
pIC50 [1]: > 5.00
pIC50 [2]: > 5.00
pIC50 [3, 4]: > 6.30

Cn1c(C(=O)c2cn(CCOc3cccc(OCC4CCNCC4)c3)c3ccccc23)cc2sccc21 [Compound 18, (4-methylthieno[3,2-b]pyrrol-5-yl)-[1-[2-[3-(4-piperidylmethoxy)phenoxy]ethyl]indol-3-yl]methanone hydrochloride]
pIC50 [1]: > 5.00
pIC50 [2]: > 5.00
pIC50 [3, 4]: > 6.30

Cn1c(C(=O)c2cn(CCCc3ccc(OCC4CCNCC4)cc3)c3ccccc23)cc2sccc21 [Compound 23, (4-methylthieno[3,2-b]pyrrol-5-yl)-[1-[3-[4-(4-piperidylmethoxy)phenyl]propyl]indol-3-yl]methanone hydrochloride]
pIC50 [1]: > 5.00
pIC50 [3, 4]: > 6.30

Cn1c(C(=O)c2cn(CCCc3ccc(OC4CCNCC4)cc3)c3ccccc23)cc2sccc21 [Compound 24, (4-methylthieno[3,2-b]pyrrol-5-yl)-[1-[3-[4-(4-piperidyloxy)phenyl]propyl]indol-3-yl]methanone hydrochloride]
pIC50 [1]: > 5.00
pIC50 [3, 4]: > 6.30

Cn1c(C(=O)c2cn(CCCc3ccc(OCC4CCNCC4)c(OCC4CCNCC4)c3)c3ccccc23)cc2sccc21 [Compound 26, [1-[3-[3,4-bis(4-piperidylmethoxy)phenyl]propyl]indol-3-yl]-(4-methylthieno[3,2-b]pyrrol-5-yl)methanone]
pIC50 [3, 4]: > 6.30

CCn1c(C(=O)c2cn(CCCc3ccc(OC4CCNCC4)cc3)c3ccccc23)cc2sccc21 [Compound 27, (4-ethylthieno[3,2-b]pyrrol-5-yl)-[1-[3-[4-(4-piperidyloxy)phenyl]propyl]indol-3-yl]methanone hydrochloride]
pIC50 [3, 4]: > 6.30

Cn1c(C(=O)c2cn(CCCc3ccc(OC4CCNCC4)cc3)c3ccccc23)cc2ccsc21 [Compound 30, (6-methylthieno[2,3-b]pyrrol-5-yl)-[1-[3-[4-(4-piperidyloxy)phenyl]propyl]indol-3-yl]methanone]
pIC50 [3, 4]: > 6.30
